In patent publication US8993717B2, “Gadd45beta targeting agents” (Imperial Innovations Limited, priority 2009, dated 2015):
Values joined by “and” are separate entries in the source; they are usually repeats but may differ in a detail not shown here. Equal entries are not always repeated. Where two headings read alike, the source gives them in different places. Square brackets hold non-standard residues; d marks the D form. Peptide text beside a SMILES is read from it. * marks the point of attachment. Cbz = O=C(OCc1ccccc1)*

Legend:
MKK7 = molecular target: T1, MKK7 (Homo sapiens, UniProt O14733); experiment: MKK7 kinase assay in the absence of Gadd45β; assay type: biochemical; details: 1 nM or 5 nM peptide
T1 construct: expressed in transfected cells; host or cells: HEK-293
T1 sequence (O14733 1-419): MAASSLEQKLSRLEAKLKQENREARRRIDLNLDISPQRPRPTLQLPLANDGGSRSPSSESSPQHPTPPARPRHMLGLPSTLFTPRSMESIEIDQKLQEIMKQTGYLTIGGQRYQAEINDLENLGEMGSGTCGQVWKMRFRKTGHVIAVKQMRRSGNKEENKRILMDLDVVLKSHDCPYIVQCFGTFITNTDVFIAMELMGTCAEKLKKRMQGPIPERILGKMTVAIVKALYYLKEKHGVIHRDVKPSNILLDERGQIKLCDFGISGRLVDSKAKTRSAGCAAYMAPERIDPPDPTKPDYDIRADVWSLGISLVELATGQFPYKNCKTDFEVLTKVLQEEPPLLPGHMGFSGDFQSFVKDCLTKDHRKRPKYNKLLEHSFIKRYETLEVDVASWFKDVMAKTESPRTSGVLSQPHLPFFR
Protocol: In FIG. 6, transient transfection of pcDNA-FLAG-MKK7 in HEK-293 cells was performed using the method of Ca3(PO4)2 precipitation, essentially as described in Papa, S et al., (2004) Nat. Cell Biol. 6, 146-153 and references therein. 36 hrs after transfection, the cells were treated with 100 ng/ml phorbol 12-myristate 13-acetate (PMA) and 1 μM ionomycin for 30 min at 37° C. Cell extracts were prepared as described in example 4 and used for immunoprecipitation with anti-FLAG antibodies (binding to FLAG-MKK7) as described in Papa, S et al., (2004) Nat. Cell Biol. 6, 146-153 and references therein. Briefly, 50 μg of cell lysate from PMA-ionomycin (P/D-treated or untreated, HEK-293 cells transiently expressing FLAG-MKK7 was incubated with 10 μl of anti-FLAG M2 Affinity Gel (SIGMA) for 4 hrs at 4° C. during rotation. The immunoprecipitates were then washed 3 times in lysis buffer and twice more in kinase buffer (10 mM HEPES, 5 mM MgCl2, 1 mM MnCl2,12.5 mM β-glycerophosphate, 2 mM DTT, 4 mM NaF and 0.1 mM Na3VO4). MKK7 catalytic activity was finally measured in kinase assays by incubating FLAG-MKK7 immunoprecipitates at 30° C. for 20 min with 20 μl of kinase buffer containing 2 μM of recombinant GST-JNK1 and 5 μCi of [γ-^32P]ATP) (kinase reaction), as described in Papa, S et a., (2004) Nat. Cell Biol. 6, 146-153 and references therein. […]

Gadd45β-inhibited MKK7 = molecular target: T2, Gadd45β-inhibited MKK7 (Homo sapiens, UniProt O14733); experiment: MKK7 kinase assay in the presence of recombinant hGadd45β; assay type: biochemical; details: 1 nM or 5 nM peptide, 5 μM GST-hGadd45β
T2 construct: expressed in transfected cells; host or cells: HEK-293 (FLAG-MKK7); bacteria (GST-hGadd45β)
T2 sequence (O14733 1-419): T1 sequence (O14733 1-419)
Protocol: In FIG. 6, transient transfection of pcDNA-FLAG-MKK7 in HEK-293 cells was performed using the method of Ca3(PO4)2 precipitation, essentially as described in Papa, S et al., (2004) Nat. Cell Biol. 6, 146-153 and references therein. 36 hrs after transfection, the cells were treated with 100 ng/ml phorbol 12-myristate 13-acetate (PMA) and 1 μM ionomycin for 30 min at 37° C. Cell extracts were prepared as described in example 4 and used for immunoprecipitation with anti-FLAG antibodies (binding to FLAG-MKK7) as described in Papa, S et al., (2004) Nat. Cell Biol. 6, 146-153 and references therein. Briefly, 50 μg of cell lysate from PMA-ionomycin (P/D-treated or untreated, HEK-293 cells transiently expressing FLAG-MKK7 was incubated with 10 μl of anti-FLAG M2 Affinity Gel (SIGMA) for 4 hrs at 4° C. during rotation. The immunoprecipitates were then washed 3 times in lysis buffer and twice more in kinase buffer (10 mM HEPES, 5 mM MgCl2, 1 mM MnCl2,12.5 mM β-glycerophosphate, 2 mM DTT, 4 mM NaF and 0.1 mM Na3VO4). MKK7 catalytic activity was finally measured in kinase assays by incubating FLAG-MKK7 immunoprecipitates at 30° C. for 20 min with 20 μl of kinase buffer containing 2 μM of recombinant GST-JNK1 and 5 μCi of [γ-^32P]ATP) (kinase reaction), as described in Papa, S et a., (2004) Nat. Cell Biol. 6, 146-153 and references therein.
In some reactions, to test the ability of D-tetrapeptide antagonists to disrupt the Gadd45β-MKK7 interaction and so release the catalytic activity of MKK7 from Gadd45β-afforded inhibition, FLAG-MKK7 immunoprecipitates were 1) first pre-incubated for 10 min at 30° C. with either 1 nM or 5 nM of DTP1, DTP2 or negative control (NC) D-tetrapeptides, NC1, NC2, NC3 and NC4, and 2) then incubated for another 10 min at 30° C. with or without 5 μM of a GST-fusion protein of recombinant human (h)Gadd45β (GST-hGadd45β; purified from bacterial lysates as described in Papa, S., (2007) J. Biol. Chem. 282, 19029-19041), before using them for the kinase reaction described above, as indicated in FIG. 6.
In all cases, kinase reactions were terminated by the addition of Laemmli sample buffer. […] For a further discussion of MKK7 kinase assay conditions, the reader is directed to Papa, S et al., (2007) J. Biol. Chem. 282, 19029-19041 and Papa, S et al., (2004) Nat. Cell Biol. 6, 146-153 and the references therein.

[1] = Mouse pharmacokinetics study, single i.v. injection; assay type: in vivo, male CD1 mice; details: for Last Time point: in h (unit assumed); for kel: 0.693/t1/2, table note; for half-life / clearance / Vd: male, CD1, mouse; for C0 / MRT inf / AUC: mouse; for AUC: read-out: AUC to Last; for acute toxicity in mice: single i.v. dose 10 mg/kg
Protocol: Z-DTP2 and Z-mDTP3 were administered intravenously to mice. Blood samples were collected at up to 7 time points after intravenous (i.v.) injection of the compounds over 8 hrs, and plasma was analysed by LC-MS/MS to determine the concentration of the compounds at each time point.
Three male CD1 mice, 25-30 grams each, were dosed per administration route per time-point, per compound. The test compound was administered intravenously (at a typical dose level of 10 mg of compound per kg of body weight). Animals were given free access to food throughout the study.
Blood samples were centrifuged to obtain the plasma, which was then transferred to a separate labelled container. Aliquots from the individual time points for the three animals were analysed singly. Proteins were precipitated by adding three volumes of methanol and centrifuging for 30 min at 4° C. Aliquots of 100 μl of the resulting supernatants were diluted with 200 μl of HPLC grade water in wells of a 96-well plate.
Standard curves were prepared in blank plasma matrices and treated in an identical manner to the samples. The plasma samples were quantified by LC-MS/MS, and the concentration of each compound in the plasma were reported in μg/mL.
Pharmacokinetic parameters were calculated employing non-compartmental model analysis, as described in the web site http://www.pharsight.com/main.php
The test compound concentration in plasma samples was measured by LC-MS/MS. The data were quantified using a five-point standard curve over a range of 3-3000 ng/mL.
Proteins were precipitated from 50 μL aliquots of the individual plasma samples by adding 150 μL methanol. Following protein precipitation, plasma samples were centrifuged for 30 min at 4° C. Aliquots of 100 μL of the resulting supernatant were diluted with 200 μL of HPLC grade water in a 96 well plate. The test compound was then quantified by LC-MS/MS from a five-point standard curve prepared by spiking plasma with varying concentrations of test compound dissolved in DMSO over a final concentration range of 3-3000 ng/mL (final DMSO concentration 1%) and treated in an identical manner to the test samples as described above.

[2] = system: IKK/NF-κB, ERK and p38 pathways; experiment: Activation of IKK/NF-κB, ERK and p38 pathways in multiple myeloma cells; assay type: cell-based, human; details: data not shown
[3] = plasma, iv, 10 mg/kg, 10 mg/kg i.v., male CD1 mice, read-out: Total CL (converted)
[4] = plasma, iv, 10 mg/kg, 10 mg/kg i.v., male CD1 mice, read-out: Vss
[5] = plasma, iv, 10 mg/kg, 10 mg/kg i.v., male CD1 mice, read-out: Vβ
[6] = plasma, iv, 10 mg/kg i.v., male CD1 mice

Compound	inhibition of MKK7 catalytic activity in the absence of Gadd45β (MKK7)	restoration of MKK7 catalytic activity (Gadd45β-inhibited MKK7)	Last Time point ([1]; 10 mg/kg i.v., male CD1 mice)	kel [1]	half-life ([1]; in vivo, iv, 10 mg/kg, T1/2) [h]	clearance [1, 3]	Vd [1, 4] [L]	Vd [1, 5] [L]	C0 [1, 6] [ng/mL]	MRT inf [1, 6] [h]	AUC [1, 6] [ng·h/mL]	acute toxicity in mice [1]	effects on the IKK/NF-κB, ERK and p38 pathways [2]	further results
CC(=O)N[C@H](Cc1ccc(O)cc1)C(=O)N[C@H](CC(=O)O)C(=O)N[C@H](Cc1c[nH]cn1)C(=O)N[C@H](Cc1ccccc1)C(N)=O [DTP1, Acetyl-(D-Tyr)-(D-Asp)-(D-His)-(D-Phe)-NH2] (Ac-[dY][dD][dH][dF]-NH2)	nor the active tetrapeptides, DTP1 and DTP2, afforded any inhibition	fully restored the catalytic activity of MKK7												
CC(=O)N[C@H](Cc1ccc(O)cc1)C(=O)N[C@H](CCC(=O)O)C(=O)N[C@H](CCCNC(=N)N)C(=O)N[C@H](Cc1ccccc1)C(N)=O [DTP2, Acetyl-(D-Tyr)-(D-Glu)-(D-Arg)-(D-Phe)-NH2] (Ac-[dY][dE][dR][dF]-NH2)	nor the active tetrapeptides, DTP1 and DTP2, afforded any inhibition	fully restored the catalytic activity of MKK7												
N=C(N)NCCC[C@@H](NC(=O)[C@@H](CCC(=O)O)NC(=O)[C@@H](Cc1ccc(O)cc1)NC(=O)OCc1ccccc1)C(=O)N[C@H](Cc1ccccc1)C(N)=O [Compound 9, Z-D-Tyr-D-Glu-D-Arg-D-Phe-NH2] (Cbz-[dY][dE][dR][dF]-NH2)			8.0	kel/t1/2 = 0.693/2.08 = 0.3323 hr^−1	2.08	2.18 mL/min and 78.1 mL/min/kg	0.126	0.394	8740	0.973	2080	absence of acute toxicity		half-life ([1]; plasma, intravenous, text b344, read-out: half-lives in vivo (converted)): ~2 h; half-life ([1]; plasma, iv, mice, read-out: initial distributive half-life): ~0.0833 h; half-life ([1]; plasma, iv, mice, read-out: terminal half-life (converted)): ~8 h; clearance ([1]; plasma, iv, mice, read-out: values of total clearance in the range): 66 to 90 mL/min/kg
NC(=O)[C@@H](Cc1ccccc1)NC(=O)[C@@H](Cc1c[nH]cn1)NC(=O)[C@@H](CC(=O)O)NC(=O)[C@@H](Cc1ccc(O)cc1)NC(=O)OCc1ccccc1 [Compound 1, Z-Tyr-Asp-His-Phe-NH2] (Cbz-[dY][dD][dH][dF]-NH2)													no effects were observed	
CC(=O)N[C@H](Cc1ccc(O)cc1)C(=O)N[C@H](CCCNC(=N)N)C(=O)N[C@H](Cc1ccccc1)C(N)=O [Compound 17, Ac-D-Tyr-D-Arg-D-Phe-NH2] (Ac-[dY]-[dR]-[dF]-NH2)			6.667	kel/t1/2 = 0.693/2.08 = 0.3323 hr^−1	1.26	0.736 mL/min and 27.1 mL/min/kg	0.0126	0.0756	29100	0.281	6430	absence of acute toxicity	no effects were observed	total clearance, times lower than that of Z-DTP2 ([1]; i.v., mice): 3 times; half-life ([1]; plasma, iv, 10 mg/kg, i.v., mice, read-out: initial distributive half-life): ~0.0833 h; half-life ([1]; plasma, iv, 10 mg/kg, i.v., mice, read-out: terminal half-life (converted)): ~8 h; clearance ([1]; plasma, iv, 10 mg/kg, i.v., mice, read-out: values of total clearance in the range): 22 to 27 mL/min/kg
